From patent US20190119284A1, “ErbB Inhibitors and Uses Thereof” (The Regents of the University of California, priority 2016, published 2019)

Tests used:
Type in all cases: biochemical
Details in all cases: for inhibition at 1 µM: compound at 1 μM
IKK-BETA = biological target: T1, IKK-BETA (Homo sapiens, UniProt O14920); assay: Nanosyn in vitro kinase profiling: IKK-BETA
T1 sequence (O14920 1-756): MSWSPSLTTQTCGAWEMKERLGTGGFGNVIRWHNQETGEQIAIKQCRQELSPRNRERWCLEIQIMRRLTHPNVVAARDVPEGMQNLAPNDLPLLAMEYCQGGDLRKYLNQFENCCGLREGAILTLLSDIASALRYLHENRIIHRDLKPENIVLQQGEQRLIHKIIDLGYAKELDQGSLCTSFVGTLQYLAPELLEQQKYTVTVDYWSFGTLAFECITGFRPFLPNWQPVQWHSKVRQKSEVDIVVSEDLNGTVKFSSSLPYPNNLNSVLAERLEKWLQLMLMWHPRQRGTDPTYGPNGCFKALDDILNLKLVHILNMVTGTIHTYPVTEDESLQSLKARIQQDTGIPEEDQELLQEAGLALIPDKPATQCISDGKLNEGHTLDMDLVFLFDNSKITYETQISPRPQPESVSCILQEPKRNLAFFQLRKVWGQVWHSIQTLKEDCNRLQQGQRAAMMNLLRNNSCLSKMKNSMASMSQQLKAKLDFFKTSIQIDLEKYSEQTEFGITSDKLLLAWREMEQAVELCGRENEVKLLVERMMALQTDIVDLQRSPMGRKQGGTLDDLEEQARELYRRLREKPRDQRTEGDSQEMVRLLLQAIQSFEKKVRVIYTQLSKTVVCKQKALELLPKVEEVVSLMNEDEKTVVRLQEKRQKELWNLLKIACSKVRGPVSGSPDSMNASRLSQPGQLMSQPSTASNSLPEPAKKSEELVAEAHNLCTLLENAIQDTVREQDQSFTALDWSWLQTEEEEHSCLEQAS
Protocol: (§1) This was confirmed by in vitro profiling against a panel of kinases, with compound 2 only showing potent inhibition of EGFR and Ab1 (Table 2).
(§2) In vitro Kinome Screen. In vitro profiling of compound 2 at 100 nM was conducted by Nanosyn.

SRC = SRC (Homo sapiens, UniProt P12931); assay: Nanosyn in vitro kinase profiling: SRC
Protocol: as §1, §2

IGF1R = IGF1R (Homo sapiens, UniProt P08069); assay: Nanosyn in vitro kinase profiling: IGF1R
Protocol: as §1, §2

CK1-EPSILON = CK1-EPSILON (Homo sapiens, UniProt P49674); assay: Nanosyn in vitro kinase profiling: CK1-EPSILON
Protocol: as §1, §2

ABL1 = ABL1 (Homo sapiens, UniProt P00519); assay: Nanosyn in vitro kinase profiling: ABL1
Protocol: as §1, §2

MST1 = biological target: T2, MST1 (Homo sapiens, UniProt Q13043); assay: Nanosyn in vitro kinase profiling: MST1
T2 sequence (Q13043 1-487): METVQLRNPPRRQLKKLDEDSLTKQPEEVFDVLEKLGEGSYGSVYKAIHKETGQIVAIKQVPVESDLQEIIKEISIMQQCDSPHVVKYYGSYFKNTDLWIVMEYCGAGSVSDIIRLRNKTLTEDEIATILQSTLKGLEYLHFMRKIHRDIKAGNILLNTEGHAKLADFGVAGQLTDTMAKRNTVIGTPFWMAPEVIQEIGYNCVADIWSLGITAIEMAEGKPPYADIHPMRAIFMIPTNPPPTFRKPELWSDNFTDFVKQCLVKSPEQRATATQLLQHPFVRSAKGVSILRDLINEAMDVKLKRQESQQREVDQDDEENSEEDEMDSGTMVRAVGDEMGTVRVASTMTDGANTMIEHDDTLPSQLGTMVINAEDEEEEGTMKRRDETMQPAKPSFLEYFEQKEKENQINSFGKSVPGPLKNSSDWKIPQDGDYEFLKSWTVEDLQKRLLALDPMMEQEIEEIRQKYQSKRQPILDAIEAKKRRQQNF
Protocol: as §1, §2

AMP-A1B1G1 = AMP-A1B1G1 (Homo sapiens, UniProt Q13131); assay: Nanosyn in vitro kinase profiling: AMP-A1B1G1
Protocol: as §1, §2

MET = MET (Homo sapiens, UniProt P08581); assay: Nanosyn in vitro kinase profiling: MET
Protocol: as §1, §2

AURORA-A = biological target: T3, AURORA-A (Homo sapiens, UniProt O14965); assay: Nanosyn in vitro kinase profiling: AURORA-A
T3 sequence (O14965 1-403): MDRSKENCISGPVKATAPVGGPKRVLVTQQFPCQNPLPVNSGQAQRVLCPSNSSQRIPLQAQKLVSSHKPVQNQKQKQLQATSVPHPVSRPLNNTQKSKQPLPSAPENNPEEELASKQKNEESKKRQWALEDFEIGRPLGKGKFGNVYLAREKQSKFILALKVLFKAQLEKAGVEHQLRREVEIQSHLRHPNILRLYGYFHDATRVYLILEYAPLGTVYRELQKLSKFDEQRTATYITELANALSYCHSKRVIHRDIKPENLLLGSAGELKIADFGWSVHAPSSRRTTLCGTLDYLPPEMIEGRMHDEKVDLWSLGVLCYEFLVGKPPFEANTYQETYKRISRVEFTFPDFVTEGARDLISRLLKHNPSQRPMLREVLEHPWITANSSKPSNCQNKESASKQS
Protocol: as §1, §2

PYK2 = PYK2 (Homo sapiens, UniProt Q14289); assay: Nanosyn in vitro kinase profiling: PYK2
Protocol: as §1, §2

SGK1 = biological target: T4, SGK1 (Homo sapiens, UniProt O00141); assay: Nanosyn in vitro kinase profiling: SGK1
T4 sequence (O00141 1-431): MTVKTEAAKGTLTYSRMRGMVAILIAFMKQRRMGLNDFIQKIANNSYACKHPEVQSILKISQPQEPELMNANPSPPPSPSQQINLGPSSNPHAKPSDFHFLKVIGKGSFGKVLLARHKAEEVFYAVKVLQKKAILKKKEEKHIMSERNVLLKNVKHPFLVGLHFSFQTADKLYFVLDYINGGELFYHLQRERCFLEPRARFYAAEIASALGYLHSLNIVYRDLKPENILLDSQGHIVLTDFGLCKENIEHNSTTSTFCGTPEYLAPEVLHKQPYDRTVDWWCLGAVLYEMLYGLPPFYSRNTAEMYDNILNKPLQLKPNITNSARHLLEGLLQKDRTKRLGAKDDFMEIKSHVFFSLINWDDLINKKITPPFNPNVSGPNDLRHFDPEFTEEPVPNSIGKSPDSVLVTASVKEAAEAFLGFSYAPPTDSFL
Protocol: as §1, §2

MAP4K4 = MAP4K4 (Homo sapiens, UniProt O95819); assay: Nanosyn in vitro kinase profiling: MAP4K4
Protocol: as §1, §2

Chain of IGF1R (P08069 31-1367): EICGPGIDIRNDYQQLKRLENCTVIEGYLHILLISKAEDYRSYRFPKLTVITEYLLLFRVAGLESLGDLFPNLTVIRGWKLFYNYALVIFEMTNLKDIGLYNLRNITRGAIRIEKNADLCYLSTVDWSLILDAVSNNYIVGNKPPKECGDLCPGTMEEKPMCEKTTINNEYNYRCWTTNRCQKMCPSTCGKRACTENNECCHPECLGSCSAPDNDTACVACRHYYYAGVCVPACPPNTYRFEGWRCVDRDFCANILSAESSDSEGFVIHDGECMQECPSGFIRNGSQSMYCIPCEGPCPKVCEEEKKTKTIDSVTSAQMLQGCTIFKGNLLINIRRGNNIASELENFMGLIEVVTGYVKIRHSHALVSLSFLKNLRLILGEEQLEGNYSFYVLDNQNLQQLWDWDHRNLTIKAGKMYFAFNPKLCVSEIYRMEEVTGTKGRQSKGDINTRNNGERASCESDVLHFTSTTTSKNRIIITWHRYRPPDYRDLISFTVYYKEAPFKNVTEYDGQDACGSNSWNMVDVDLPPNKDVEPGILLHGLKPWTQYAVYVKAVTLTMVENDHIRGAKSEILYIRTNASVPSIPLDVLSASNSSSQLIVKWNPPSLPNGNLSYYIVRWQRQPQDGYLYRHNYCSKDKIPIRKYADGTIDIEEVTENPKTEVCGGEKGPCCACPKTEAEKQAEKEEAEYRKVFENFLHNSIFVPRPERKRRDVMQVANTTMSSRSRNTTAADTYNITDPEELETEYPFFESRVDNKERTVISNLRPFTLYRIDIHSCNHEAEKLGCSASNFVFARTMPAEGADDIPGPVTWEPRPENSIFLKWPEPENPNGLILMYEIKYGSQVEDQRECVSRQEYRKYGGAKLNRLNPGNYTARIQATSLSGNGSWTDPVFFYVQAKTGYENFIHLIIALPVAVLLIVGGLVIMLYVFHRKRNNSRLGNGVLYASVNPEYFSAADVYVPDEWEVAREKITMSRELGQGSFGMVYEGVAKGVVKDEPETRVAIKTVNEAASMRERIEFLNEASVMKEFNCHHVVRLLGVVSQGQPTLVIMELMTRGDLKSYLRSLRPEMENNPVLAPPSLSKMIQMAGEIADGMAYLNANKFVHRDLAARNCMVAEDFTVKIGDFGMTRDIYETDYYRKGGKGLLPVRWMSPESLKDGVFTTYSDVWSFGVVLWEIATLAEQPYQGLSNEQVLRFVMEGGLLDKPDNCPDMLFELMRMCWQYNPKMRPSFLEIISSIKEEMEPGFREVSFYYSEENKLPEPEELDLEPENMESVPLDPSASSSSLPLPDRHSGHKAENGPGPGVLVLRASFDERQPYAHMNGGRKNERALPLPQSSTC
Chain of PYK2 (Q14289 whole entry, species assumed): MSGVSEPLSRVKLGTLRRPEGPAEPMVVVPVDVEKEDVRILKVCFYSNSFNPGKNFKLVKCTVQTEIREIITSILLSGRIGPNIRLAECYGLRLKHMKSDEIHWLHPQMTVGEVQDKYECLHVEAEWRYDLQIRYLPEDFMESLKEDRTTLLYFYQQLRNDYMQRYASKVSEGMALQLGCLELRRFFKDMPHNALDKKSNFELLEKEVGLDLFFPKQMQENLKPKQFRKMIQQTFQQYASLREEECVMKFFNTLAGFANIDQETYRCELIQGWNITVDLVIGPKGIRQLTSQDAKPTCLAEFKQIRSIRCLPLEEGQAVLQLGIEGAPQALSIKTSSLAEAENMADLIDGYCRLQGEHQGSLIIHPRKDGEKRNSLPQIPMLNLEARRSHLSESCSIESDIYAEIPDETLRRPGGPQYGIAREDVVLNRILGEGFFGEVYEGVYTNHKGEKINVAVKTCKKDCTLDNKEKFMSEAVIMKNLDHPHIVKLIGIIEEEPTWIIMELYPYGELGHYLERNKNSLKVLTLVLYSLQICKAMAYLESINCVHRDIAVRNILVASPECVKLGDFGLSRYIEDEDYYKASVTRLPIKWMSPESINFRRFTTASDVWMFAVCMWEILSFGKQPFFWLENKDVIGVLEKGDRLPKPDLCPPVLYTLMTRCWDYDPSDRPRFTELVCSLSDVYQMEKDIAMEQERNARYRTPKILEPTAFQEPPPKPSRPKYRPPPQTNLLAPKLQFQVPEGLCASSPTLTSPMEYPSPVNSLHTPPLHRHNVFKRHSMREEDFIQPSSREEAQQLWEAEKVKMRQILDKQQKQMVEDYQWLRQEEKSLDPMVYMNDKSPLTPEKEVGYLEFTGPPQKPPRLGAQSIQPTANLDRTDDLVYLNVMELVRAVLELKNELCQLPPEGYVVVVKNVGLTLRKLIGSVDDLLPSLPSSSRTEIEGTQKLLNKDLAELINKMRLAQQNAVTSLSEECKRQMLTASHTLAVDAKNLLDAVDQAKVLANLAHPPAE
Chain of AMP-A1B1G1 (Q13131 whole entry): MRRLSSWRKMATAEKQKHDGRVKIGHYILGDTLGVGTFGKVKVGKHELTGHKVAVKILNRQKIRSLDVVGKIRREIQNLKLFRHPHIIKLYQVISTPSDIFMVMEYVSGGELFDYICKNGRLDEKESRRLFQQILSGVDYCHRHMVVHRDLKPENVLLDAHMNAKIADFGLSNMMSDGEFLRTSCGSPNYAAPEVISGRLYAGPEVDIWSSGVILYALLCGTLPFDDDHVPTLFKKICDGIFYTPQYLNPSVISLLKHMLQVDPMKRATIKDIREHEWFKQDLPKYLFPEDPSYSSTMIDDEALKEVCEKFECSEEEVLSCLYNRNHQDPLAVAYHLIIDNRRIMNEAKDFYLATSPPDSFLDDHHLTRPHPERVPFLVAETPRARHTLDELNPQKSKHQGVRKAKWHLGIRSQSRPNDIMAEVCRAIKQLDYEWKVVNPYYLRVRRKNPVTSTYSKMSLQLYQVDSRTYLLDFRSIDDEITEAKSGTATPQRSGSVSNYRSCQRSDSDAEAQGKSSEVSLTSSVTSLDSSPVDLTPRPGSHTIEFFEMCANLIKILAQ
Chain of AMP-A1B1G1 (Q9Y478 whole entry partner): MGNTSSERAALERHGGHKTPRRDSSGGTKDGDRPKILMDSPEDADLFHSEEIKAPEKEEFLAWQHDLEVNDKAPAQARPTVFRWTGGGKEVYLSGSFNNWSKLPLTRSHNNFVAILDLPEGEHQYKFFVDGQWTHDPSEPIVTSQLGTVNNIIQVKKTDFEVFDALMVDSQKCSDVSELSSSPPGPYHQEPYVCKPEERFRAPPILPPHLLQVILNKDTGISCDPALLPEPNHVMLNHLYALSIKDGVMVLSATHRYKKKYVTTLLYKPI
Chain of AMP-A1B1G1 (P54619 whole entry partner): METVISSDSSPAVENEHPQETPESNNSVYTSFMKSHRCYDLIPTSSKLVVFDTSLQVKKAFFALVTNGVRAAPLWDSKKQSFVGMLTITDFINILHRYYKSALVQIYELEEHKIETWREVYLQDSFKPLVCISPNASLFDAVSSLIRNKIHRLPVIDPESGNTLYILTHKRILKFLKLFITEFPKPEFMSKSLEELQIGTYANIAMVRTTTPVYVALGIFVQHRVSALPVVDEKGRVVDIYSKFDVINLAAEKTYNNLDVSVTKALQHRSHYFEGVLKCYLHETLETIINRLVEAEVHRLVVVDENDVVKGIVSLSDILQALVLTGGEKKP
Chain of MET (P08581 25-1390): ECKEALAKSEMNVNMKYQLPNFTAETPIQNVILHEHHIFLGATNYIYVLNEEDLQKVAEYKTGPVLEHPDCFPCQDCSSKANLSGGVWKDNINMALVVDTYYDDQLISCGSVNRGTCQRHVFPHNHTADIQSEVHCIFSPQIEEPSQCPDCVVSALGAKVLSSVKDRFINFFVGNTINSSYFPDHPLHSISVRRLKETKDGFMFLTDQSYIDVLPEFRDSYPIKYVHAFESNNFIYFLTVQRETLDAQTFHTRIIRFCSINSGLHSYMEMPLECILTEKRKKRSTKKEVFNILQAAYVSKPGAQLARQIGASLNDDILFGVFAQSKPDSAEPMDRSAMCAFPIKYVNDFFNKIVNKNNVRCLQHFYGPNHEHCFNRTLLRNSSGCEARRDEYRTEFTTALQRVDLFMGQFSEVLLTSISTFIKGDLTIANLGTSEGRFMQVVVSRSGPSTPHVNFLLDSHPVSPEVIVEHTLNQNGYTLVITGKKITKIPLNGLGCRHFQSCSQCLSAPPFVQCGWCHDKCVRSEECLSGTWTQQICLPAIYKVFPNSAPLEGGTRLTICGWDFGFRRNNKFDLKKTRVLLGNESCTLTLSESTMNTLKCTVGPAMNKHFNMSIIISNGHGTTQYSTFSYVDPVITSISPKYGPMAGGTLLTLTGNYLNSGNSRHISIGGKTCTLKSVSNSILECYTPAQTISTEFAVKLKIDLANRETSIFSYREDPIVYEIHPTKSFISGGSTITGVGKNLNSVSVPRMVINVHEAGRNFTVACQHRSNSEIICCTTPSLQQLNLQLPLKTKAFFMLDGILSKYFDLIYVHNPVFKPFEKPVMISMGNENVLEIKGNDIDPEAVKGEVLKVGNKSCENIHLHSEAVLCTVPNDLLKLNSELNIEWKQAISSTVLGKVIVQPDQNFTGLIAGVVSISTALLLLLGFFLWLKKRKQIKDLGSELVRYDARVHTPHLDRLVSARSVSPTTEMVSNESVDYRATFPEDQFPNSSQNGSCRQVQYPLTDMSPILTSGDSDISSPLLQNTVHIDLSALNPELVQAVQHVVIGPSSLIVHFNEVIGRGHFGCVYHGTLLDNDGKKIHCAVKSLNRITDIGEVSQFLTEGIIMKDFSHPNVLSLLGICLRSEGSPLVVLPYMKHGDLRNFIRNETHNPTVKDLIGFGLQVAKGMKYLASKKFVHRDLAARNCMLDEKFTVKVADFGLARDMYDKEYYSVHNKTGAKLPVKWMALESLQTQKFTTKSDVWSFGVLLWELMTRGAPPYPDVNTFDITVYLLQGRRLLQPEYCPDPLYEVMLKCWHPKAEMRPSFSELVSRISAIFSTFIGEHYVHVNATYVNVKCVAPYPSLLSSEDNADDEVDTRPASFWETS

Row | Compound | inhibition at 1 µM (IKK-BETA) | inhibition at 1 µM (SRC) | inhibition at 1 µM (IGF1R) | inhibition at 1 µM (CK1-EPSILON) | inhibition at 1 µM (ABL1) | inhibition at 1 µM (MST1) | inhibition at 1 µM (AMP-A1B1G1) | inhibition at 1 µM (MET) | inhibition at 1 µM (AURORA-A) | inhibition at 1 µM (PYK2) | inhibition at 1 µM (SGK1) | inhibition at 1 µM (MAP4K4) | also measured
1 | COc1ccc(-c2ccoc2)cc1Nc1ncnc2[nH]cc(-c3cc[nH]n3)c12 [compound 3, N-(5-(furan-3-yl)-2-methoxyphenyl)-5-(1H-pyrazol-3-yl)-7H-pyrrolo[2,3-d]pyrimidin-4-amine] | 8% | 95% | 46% | 11% | 98% | 84% | 20% | 16% | 31% | 41% | 31% | 100% | 
2 | COc1ccc(-c2ccco2)cc1Nc1ncnc2[nH]nc(-c3ccco3)c12 [compound 2, 3-(furan-2-yl)-N-(5-(furan-2-yl)-2-methoxyphenyl)-1H-pyrazolo[3,4-d]pyrimidin-4-amine] | 2.91% | 88.9% | 53.3% | 24.1% | 97.2% | 19.9% | 12.9% | 10.1% | 47.2% | 20.2% | 53.4% | 78.7% | inhibition at 0.1 µM (IKK-BETA; compound at 100 nM): 1.92%; inhibition at 0.1 µM (SRC; compound at 100 nM): 63.2%; inhibition at 0.1 µM (IGF1R; compound at 100 nM): 13.3%; inhibition at 0.1 µM (CK1-EPSILON; compound at 100 nM): 3.45%; inhibition at 0.1 µM (ABL1; compound at 100 nM): 95.2%; inhibition at 0.1 µM (MST1; compound at 100 nM): 3.85%; inhibition at 0.1 µM (AMP-A1B1G1; compound at 100 nM): 2.69%; inhibition at 0.1 µM (MET; compound at 100 nM): 2.04%; inhibition at 0.1 µM (AURORA-A; compound at 100 nM): 9.95%; inhibition at 0.1 µM (PYK2; compound at 100 nM): 3.81%; inhibition at 0.1 µM (SGK1; compound at 100 nM): 14.4%; inhibition at 0.1 µM (MAP4K4; compound at 100 nM): 36.5%
